From PMC10683023, “Targeting Glial Cells by Organic Anion-Transporting Polypeptide 1C1 (OATP1C1)-Utilizing L-Thyroxine-Derived Prodrugs” (Journal of Medicinal Chemistry, 2023)

Tests used:
[1] = Enzymatic bioconversion in mouse liver S9 fraction; type: in vitro ADME; details: for Enzymatic stability, remaining percentage, mouse liver S9: after 5 h incubation, 100 μM prodrug
Protocol: (§1) The rates of bioactivation of the prodrugs 1–8 in mouse and human liver S9 fractions, as well as in mouse primary astrocyte–microglia homogenate, were determined at +37 °C. The incubation mixtures were prepared by mixing liver S9 subcellular fraction or brain cell homogenate (final protein concentration 1.0 mg/mL) with isotonic Tris–HCl buffer (pH 7.4) and 10 mM prodrug stock solution in DMSO (the initial concentration of prodrugs was 100 μM and the DMSO concentration was […]). The mixture was incubated for 5 h, and the samples ([…]) were withdrawn at appropriate intervals. The enzymatic reaction was terminated by the addition of ice-cold acetonitrile ([…]), and the samples were centrifuged for 5 min at 12 000 rpm at room temperature and kept on ice until the supernatants were analyzed by the HPLC method described below. In blank reactions, the S9 fractions were replaced with the same volume of buffer. The pseudo-first-order half-lives (t1/2) for the rates of bioconversion of the prodrugs were calculated from the slope of the linear portion of the plotted logarithm of the remaining prodrug concentration versus time. The rates of bioactivation of prodrugs 1–8 in human plasma and mouse serum were determined at 37 °C as above by adding 10 mM stock solution of the prodrug to plasma/serum in a ratio of 1:10 and analyzed similarly to the samples from S9 fractions.
(§2) The amount of prodrug 1–8 was determined by the HPLC system, which consisted of an Agilent 1100 binary pump (Agilent Technologies Inc., Wilmington, DE), an 1100 micro vacuum degasser, an HP 1050 Autosampler, and an HP 1050 variable wavelength detector, operated at 230–240 nm. The chromatographic separations were achieved on an Agilent Zorbax SB-C18 analytical column (4.4 mm × 150 mm, 5 μm) (Agilent Technologies Inc., Wilmington, DE) by using isocratic elution of water containing 0.1% formic acid (pH ca. 3.0) and acetonitrile containing 0.1% formic acid with ratios of 50:50, 30:70, 40:60, 50:50, 50:50, 40:60, 40:60, and 30:70 (v/v), respectively, for prodrug 1–8. […] The lower limit of quantification for prodrugs 1–8 was 0.20 μM. These HPLC methods were also accurate, precise, and selective over the range of 0.5–20 μM.

[2] = Enzymatic bioconversion in human plasma; type: in vitro ADME; details: after 5 h incubation, 37 °C, mean ± SD, n = 3
Protocol: as §1, §2

[3] = system: human U-87MG glioma cells; test: Concentration-dependent cellular uptake into human U-87MG glioma cells; type: cell-based; details: for Km / Vmax, cellular uptake, U-87MG: 5–400 μM, 30 min, 37 °C
Protocol: U-87MG (ATCC, HTB-14, unknown origin) was purchased from Lonza (Basel, Switzerland). The cells were cultured in standard conditions (37 °C, 5% CO2) using Dulbecco’s modified Eagle’s medium (DMEM) supplemented with L-glutamine (2.0 mM), heat-inactivated fetal bovine serum (FBS) (10%), penicillin (50 U/mL), and streptomycin (50 μg/mL). U-87MG cells (passages 8–25) were seeded at a density of 1 × 10^5 cells/well onto 24-well plates and used for the uptake experiments 1 day after seeding. All of the studies were carried out as three biological replicates from the same cell passage.
After removal of the culture medium, U-87MG human glioma cells and mouse primary astrocytes were carefully washed with prewarmed Hank’s balanced salt solution (HBSS) containing 125.0 mM NaCl (or choline chloride in Na^+ free conditions), 4.8 mM KCl, 1.2 mM MgSO4, 1.2 mM KH2PO4, 1.3 mM CaCl2, 5.6 mM glucose, and 25.0 mM 4-(2-hydroxyethyl)piperazine-1-ethanesulfonic acid (HEPES) with the pH adjusted to either 7.4 or pH 8.5 with 1 M NaOH (or KOH in sodium-free conditions). In the experiments at lower pH (4.5–6.5), 25.0 mM HEPES was replaced by 2-(N-morpholino) ethanesulfonic acid (MES), and the pH was adjusted to 4.5, 5.5, and 6.5 by 1.0 M NaOH. Preincubation was done with 500 μL of prewarmed HBSS at 37 °C for 10 min before adding the substrate for the uptake experiments. The functionality of OATP1C1 in human glioma U-87MG cells was studied with a known substrate (L-thyroxine, T4) and of oatp1a4, 1a5, and 1a6 in mouse primary astrocytes with [6,7-^3H(N)]-estrone-3-sulfate (ES) by incubating the uptake solution (250 μL in HBSS) consisting of 5–400 μM of the substrate at 37 °C for 30 min. After incubation, the uptake was stopped by adding 500 μL of ice-cold HBSS, and the cells were washed two times with ice-cold HBSS (2 × 500 μL). The cells were then lysed with 500 μL of 0.1 M NaOH (60 min), the lysate was neutralized, and the protein was precipitated with acidic acetonitrile (ACN with 4.8% formic acid). The supernatants were analyzed by the high-performance liquid chromatography (HPLC) methods described below (T4) or by using a liquid scintillation counter (MicroBeta2 counter, PerkinElmer, Waltham, MA) (ES). The concentrations of T4 and ES were calculated from the spiked standard curve and normalized with the protein concentrations. The protein concentrations on each plate were determined as a mean of three samples by Bio-Rad Protein Assay, based on the Bradford dye-binding method, using bovine serum albumin (BSA) as a standard protein and measuring the absorbance (595 nm) by a multiplate reader (EnVision, PerkinElmer, Inc., Waltham, MA). The OATP-mediated uptake was confirmed by changing the pH of the uptake buffer in the absence of sodium ions, and in the case of OATP1C1 in human U-87MG cells, the uptake of T4 (100 μM) was studied in the presence of competing OATP1C1-ligands, diclofenac and flufenamic acid (100 μM), and in the case of oatp1a4/1a5/1a6 in mouse primary astrocytes, the uptake of ES (100 μM) was studied in the presence of competing OATO1A2-ligand, naringin (100 μM).
Cellular uptake of prodrugs 1–8 was studied as described for L-thyroxine above by adding compounds at a concentration of 5–400 μM in prewarmed HBSS buffer (250 μL) on the cell layer and incubating at 37 °C for 30 min (uptake was linear with all compounds up to 30 min). Subsequently, the cells were washed three times with ice-cold HBSS and lysed with 500 μL of 0.1 M NaOH (60 min). The lysate was neutralized; the proteins were precipitated with acidic ACN (containing 4.8% formic acid), and the supernatants were analyzed by the (HPLC) methods described below. The concentrations of each prodrug normalized to protein concentration were calculated from the standard curve prepared by spiking known concentrations of compounds into ACN-precipitated cell lysate. […]

[4] = Enzymatic bioconversion in mouse primary astrocyte–microglia homogenate; type: in vitro ADME; details: after 5 h incubation, 100 μM prodrug, 37 °C, mean ± SD, n = 3
Protocol: as §1, §2

[5] = Enzymatic bioconversion in mouse serum; type: in vitro ADME; details: for Enzymatic stability, remaining percentage, mouse serum: after 5 h incubation
Protocol: as §1, §2

[6] = Enzymatic bioconversion in human liver S9 fraction; type: in vitro ADME; details: for Enzymatic stability, remaining percentage, human liver S9: after 5 h incubation, 100 μM prodrug
Protocol: as §1, §2

[7] = DIT prodrug faster than T4 prodrug

Row | Bioconversion rate in mouse liver S9 relative to the corresponding T4 derivative [1, 7] | Enzymatic stability, remaining percentage, mouse liver S9 ([1]; 37 °C, mean ± SD, n = 3) | half-life at 100 µM ([1]; mouse, pH 7.4, liver S9 fraction, 37 °C, mean ± SD, n = 3, read-out: Enzymatic bioconversion half-life t1/2, mouse liver) | Enzymatic stability, remaining percentage, human plasma [2] | Enzymatic stability, remaining percentage, mouse brain cell homogenate [4] | Enzymatic stability, remaining percentage, mouse serum ([5]; 37 °C, mean ± SD, n = 3) | Bioconversion rate in human liver relative to the corresponding T4 derivative [6, 7] | Enzymatic stability, remaining percentage, human liver S9 ([6]; 37 °C, mean ± SD, n = 3) | half-life at 100 µM ([6]; human, pH 7.4, liver S9 fraction, 37 °C, mean ± SD, n = 3, read-out: Enzymatic bioconversion half-life t1/2, human liver) | Bioconversion rate in mouse serum relative to human plasma ([5]; higher in mouse serum) | half-life at 1 mM ([5]; mouse, serum, 37 °C, mean ± SD, n = 3, read-out: Enzymatic bioconversion half-life t1/2, mouse serum) | SMILES | Km [3] | Vmax, cellular uptake, U-87MG [3] | Vmax, cellular uptake, U-87MG ([3]; listed as PD6) | Vmax, cellular uptake, U-87MG ([3]; listed as PD2) | Transport capacity relative to prodrug 3 ([3]; at 200 μM concentration, U-87MG cells) | Affinity relative to corresponding DIT prodrug 3 ([3]; from Km values, U-87MG cells)
1 | around 3 times | 25.19 ± 6.22% | 2.69 ± 0.429 h | 90.52 ± 9.48% | 92.68 ± 7.32% | 94.89 ± 5.11% | ~2.5 times | 30.54 ± 3.21% | 2.91 ± 0.25 h |  |  | CC(C(=O)Oc1c(I)cc(C[C@H](N)C(=O)O)cc1I)c1ccc(-c2ccccc2)c(F)c1 (mixture of isomers) [Prodrug 7, (2S)-2-Amino-3-(4-((2-(2-fluoro-[1,1′-biphenyl]-4-yl)propanoyl)oxy)-3,5-diiodophenyl)propanoic acid] | 381 ± 73 µM | 19.8 ± 2.3 nmol/min/mg |  |  |  | 
2 |  | 78.10 ± 1.88% |  | 96.32 ± 3.68% | 95.18 ± 4.82% | 98.33 ± 1.67% |  | 78.70 ± 3.74% |  |  |  | COc1ccc2cc([C@H](C)C(=O)Oc3c(I)cc(Oc4c(I)cc(C[C@H](N)C(=O)O)cc4I)cc3I)ccc2c1 [Prodrug 6, (S)-2-Amino-3-(4-(3,5-diiodo-4-(((S)-2-(6-methoxynaphthalen-2-yl)propanoyl)oxy)phenoxy)-3,5-diiodophenyl)propanoic acid] | 138 ± 36 µM | 13.5 nmol/min/mg | 13.5 ± 1.6 nmol/min/mg |  |  | 
3 |  | 84.32 ± 0.99% |  | 97.17 ± 2.83% | 97.94 ± 2.06% | 96.79 ± 3.21% |  | 80.17 ± 2.23% |  |  |  | CC(C(=O)Oc1c(I)cc(Oc2c(I)cc(C[C@H](N)C(=O)O)cc2I)cc1I)c1ccc(-c2ccccc2)c(F)c1 (mixture of isomers) [Prodrug 8, (2S)-2-Amino-3-(4-(4-((2-(2-fluoro-[1,1′-biphenyl]-4-yl)propanoyl)oxy)-3,5-diiodophenoxy)-3,5-diiodophenyl)propanoic acid] | 221 ± 48 µM | 21.5 ± 2.4 nmol/min/mg |  |  |  | 
4 |  | 87.59 ± 1.20% |  | 96.47 ± 3.53% | 96.01 ± 3.99% | 98.79 ± 1.21% |  | 85.71 ± 4.27% |  |  |  | CC(C(=O)Oc1c(I)cc(Oc2c(I)cc(C[C@H](N)C(=O)O)cc2I)cc1I)c1cccc(C(=O)c2ccccc2)c1 (mixture of isomers) [Prodrug 2, (2S)-2-Amino-3-(4-(4-((2-(3-benzoylphenyl)propanoyl)oxy)-3,5-diiodophenoxy)-3,5-diiodophenyl)propanoic acid] | 118 ± 27 µM | 13 nmol/min/mg |  | 13.0 ± 1.3 nmol/min/mg |  | 
5 |  | 69.18 ± 0.81% |  | 97.17 ± 2.83% | 91.38 ± 5.34% | 96.79 ± 3.21% |  | 84.00 ± 3.90% |  |  |  | N[C@@H](Cc1cc(I)c(Oc2cc(I)c(OC(=O)c3ccccc3O)c(I)c2)c(I)c1)C(=O)O [Prodrug 4, (S)-2-Amino-3-(4-(4-((2-hydroxybenzoyl)oxy)-3,5-diiodophenoxy)-3,5-diiodophenyl)propanoic acid] | 106 ± 32 µM | 9.0 ± 1.1 nmol/min/mg |  |  | ca. 3.5 times | 5 times
6 |  | 99.06 ± 0.94% |  | 68.94 ± 2.01% | 95.26 ± 4.74% | 14.40 ± 0.60% |  | 96.84 ± 3.16% |  | 5 times | 1.39 ± 0.49 h | N[C@@H](Cc1cc(I)c(OC(=O)c2ccccc2O)c(I)c1)C(=O)O [Prodrug 3, (S)-2-Amino-3-(4-((2-hydroxybenzoyl)oxy)-3,5-diiodophenyl)propanoic acid] | 539 ± 97 µM | 9.9 ± 1.2 nmol/min/mg |  |  |  | 
